Experimental data as given in PMC4824854, “Predictions of Cleavability of Calpain Proteolysis by Quantitative Structure-Activity Relationship Analysis Using Newly Determined Cleavage Sites and Catalytic Efficiencies of an Oligopeptide Array” (Molecular & Cellular Proteomics : MCP, 2016).
“Also recorded” adds a separate entry of the source.

T1: C1 (Merck Millipore #208712) (Sus scrofa, UniProt P35750)
T1 construct: purchased Merck Millipore 208712
T1 sequence (P35750 1-714): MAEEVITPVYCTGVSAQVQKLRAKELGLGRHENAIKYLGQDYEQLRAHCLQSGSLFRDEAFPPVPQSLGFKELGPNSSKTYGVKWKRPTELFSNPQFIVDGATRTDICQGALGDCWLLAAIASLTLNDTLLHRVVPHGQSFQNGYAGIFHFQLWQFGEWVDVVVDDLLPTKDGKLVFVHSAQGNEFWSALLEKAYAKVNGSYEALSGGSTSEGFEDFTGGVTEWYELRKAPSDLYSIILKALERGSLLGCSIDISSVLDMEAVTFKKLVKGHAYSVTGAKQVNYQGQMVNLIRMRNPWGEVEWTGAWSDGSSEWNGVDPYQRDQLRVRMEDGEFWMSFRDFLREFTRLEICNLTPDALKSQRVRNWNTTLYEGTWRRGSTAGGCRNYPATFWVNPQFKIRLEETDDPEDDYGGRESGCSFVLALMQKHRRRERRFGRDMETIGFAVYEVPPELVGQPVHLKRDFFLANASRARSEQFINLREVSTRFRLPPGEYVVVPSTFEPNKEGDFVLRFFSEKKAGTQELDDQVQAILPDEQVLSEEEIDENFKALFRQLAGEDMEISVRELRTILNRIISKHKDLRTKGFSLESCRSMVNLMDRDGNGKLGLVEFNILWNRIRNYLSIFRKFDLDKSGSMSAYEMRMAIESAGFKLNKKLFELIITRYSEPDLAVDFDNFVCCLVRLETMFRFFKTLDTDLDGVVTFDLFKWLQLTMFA
T1 sequence (P04574 1-266 partner): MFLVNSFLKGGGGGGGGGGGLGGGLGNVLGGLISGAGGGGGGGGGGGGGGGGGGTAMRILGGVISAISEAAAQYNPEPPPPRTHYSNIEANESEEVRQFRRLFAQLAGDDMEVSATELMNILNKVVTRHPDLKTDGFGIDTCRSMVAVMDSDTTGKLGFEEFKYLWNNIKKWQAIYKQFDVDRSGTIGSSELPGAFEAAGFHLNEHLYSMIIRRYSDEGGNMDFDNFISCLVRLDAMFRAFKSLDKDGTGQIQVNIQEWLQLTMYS


Legend:
calpains = conditions: cited from earlier work
Description: This activity is mainly achieved by an ∼10^4-fold increase in the kcat without a significant change in the Km ([39]), by an unknown mechanism. Although this amidase-like calpain activity may be involved in as-yet-unknown physiological functions, there has been no further report on it.

[1] = molecular target: T1, C1 (Merck Millipore #208712); assay: Cleavage sites in whole proteins by N-terminal sequencing and MS/MS; assay type: biochemical; conditions: C1 0.9 pmol, 100 mM Tris-HCl pH 7.5, 5 mM CaCl2, 30 °C, 20 min; peptide sequencing and LC-MS/MS
Procedure: Human heart troponin T2 (Merck 648484–100UGA, ca. 30 pmol) and horse myoglobin (Sigma-Aldrich, M0630, ca. 60 pmol) were digested with C1 (Merck Millipore #208712, 0.9 pmol) in 50 μl of 100 mM Tris-HCl (pH 7.5), 1 mM DTT, and 5 mM CaCl2 at 30 °C for 20 min. The digested samples were directly separated by SDS-PAGE, and the proteolyzed fragments were then blotted onto a PVDF membrane and subjected to peptide sequencing analysis (AproScience Inc., Tokushima, Japan). For sequence analysis by MS, the same digestion reactions were performed, terminated by adding a 3-fold volume of 7% TCA followed by incubation on ice for 30 min, spun (20,000 × g, 2 °C, 10 min), and the supernatant was collected. An aliquot of the soluble fraction was desalted and concentrated to a few μl using Zip-Tip C-18, and analyzed by Sciex 5600^+ with the Eksigent nanoLC system. The samples were analyzed in triplicate, the data were merged, and the peptide sequences were identified using ProteinPilot (Ver. 4.5) and Swiss-Prot DB (2015_08; 549,008 sequences; 195,692,017 aars) using the default parameters.

Row | Molecule | kcat/Km for hydrolysis of the NH2 group at the C terminus (amidase-like activity) (calpains) | calpain cleavage sites detected in the whole protein [1]
1 | RPKPQQFFGLM-NH2 [substance P] | 10^6 M^−1s^−1 | 
2 | horse myoglobin: horse myoglobin (Sigma-Aldrich, M0630; P68082) (protein, UniProt P68082 2-154, looked up) Myoglobin: GLSDGEWQQVLNVWGKVEADIAGHGQEVLIRLFTGHPETLEKFDKFKHLKTEAEMKASEDLKKHGTVVLTALGGILKKKGHHEAELKPLAQSHATKHKIPIKYLEFISDAIIHVLHSKHPGDFGADAQGAMTKALELFRNDIAAKYKELGFQG |  | Lys^51/Thr^52; also recorded: Gly^152/Phe^153
